Measured values taken from article PMC11040352, “CD38‐Specific Gallium‐68 Labeled Peptide Radiotracer Enables Pharmacodynamic Monitoring in Multiple Myeloma with PET” (Advanced Science, 2024).

Key:
[1] = target: T1, recombinant human CD38 protein (Homo sapiens, UniProt P28907); test: Affinity measurement by surface plasmon resonance (SPR), human CD38; assay type: binding
T1 construct: purchased R&D systems 2404-AC
Description: The affinity of AJ206 for hCD38 and mCD38 recombinant proteins were evaluated by SPR. The experiments were conducted using a Biacore T200 instrument with a CM5 chip at 25 °C. The ligands used were His‐Tagged human CD38 (R&D systems, catalog # 2404‐AC, 43 kDa, 0.5 mg mL^−1 stock concentration) and mouse CD38 proteins (R&D systems, catalog # 4947‐AC, 40 kDa, 1.81 mg mL^−1 stock concentration), which were immobilized onto the CM5 chip. AJ206 (2089.2 Da, 10 × 10^−3 M stock concentration) was used as the analyte, which flowed over the ligand immobilized surface. FC2 was used as the experimental flow cell, while FC1 served as the reference. Anti‐His antibody (1 mg mL^−1 stock concentration) was immobilized on both FC1 and FC2 using standard amine coupling chemistry. The immobilization running buffer used was PBS‐P (20 × 10^−3 M phosphate buffer pH 7.4, 137 × 10^−3 M NaCl, 2.7 × 10^−3 M KCl, 0.05% v/v surfactant P20). Human CD38 was captured onto FC2 at a level of ≈860 RU, with a 1:20 dilution and 25 µg mL^−1 diluted concentration in PBS‐P. Mouse CD38 was captured onto FC4 at a level of 1360 RU, with a 1:50 dilution and 36.2 µg mL^−1 diluted concentration in PBS‐P. The theoretical R max values were calculated based on the captured response values and are presented in Table 2 , assuming a 1:1 interaction mechanism. […]

PDX tumors = test: PET imaging of patient‐derived xenografts (PDXs), incl. before and after ATRA; assay type: in vivo, NSG mice; conditions: PDX mice, oral ATRA 500 µg per day for 3 d, compared to pre‐treatment
Description: To establish PDX models, immune‐deficient NSG male mice (NOD/Shi‐scid IL‐2rgnull), aged 6–8 weeks, were employed after being irradiated at an absorbed dose of 200 cGy. PCL cells, sourced from two patients and anonymized, were obtained from Dr. Gocke's laboratory. Under sterile conditions, the cells were thawed and treated with DNAse at a concentration of 20 µg mL^−1. After cell counting, 30 000 cells were subjected to flow cytometry analysis to assess CD38 expression. The remaining cells were subcutaneously inoculated at a concentration of 5 × 10^6 cells in 100 µL of a solution comprising 60% Matrigel Basement Matrix (Corning 356230) diluted with HBSS. The animals were included in the experiments once the PDX volumes reached tumor volumes of 100–200 mm^3.
Mice bearing flank tumors and disseminated disease were injected intravenously with [^68Ga]Ga‐AJ206 and PET images were acquired 60 min after injection of the radiotracer. […] PET images were quantified by drawing ROI on tissues using Amide 1.0.6 and reported as %ID/cc.
To assess the pharmacodynamics of ATRA‐induced CD38 expression in vivo, mice bearing PDX tumors (n = 6) were subjected to image using [^68Ga]Ga‐AJ206 to quantify CD38 expression prior to treatment. […] All images were analyzed using AMIDE software with standard ROI analysis techniques.

[2] = tested on: MM cell lines (U266, RPMI8226, MM1S, and MOLP8); test: ATRA treatment, in vitro uptake of [^68Ga]Ga‐AJ206; assay type: cell-based, human; conditions: ATRA treated cells compared to control treatment
Description: In vitro binding assays were conducted to determine the binding of [^68Ga]Ga‐AJ206 to U266, RPMI8226, MM1S, and MOLP8 cells. Approximately 1 µCi of [^68Ga]Ga‐AJ206 was incubated with 1 × 10^6 cells in 100 µL of culture media for 60 min at 4 °C. After incubation, cells were washed three times with ice‐cold PBS containing 0.1% tween‐20 and counted on an automated gamma counter (1282 Compugamma CS, Pharmacia/LKB Nuclear, Inc., Gaithersburg, MD). […] All cellular uptake studies were performed in quadruplicate for each cell line and repeated three times.
To evaluate the pharmacodynamic effects of ATRA therapy on MM cells, U266, RPMI8226, MM1S, and MOLP8 cells were seeded at a concentration of 0.5 million in 500 µL per well in triplicates in a six‐well plate. A 200 × 10^−9 M working solution of all‐trans retinoic acid (ATRA, Sigma‐Aldrich #554720) was prepared by diluting in culture media. Next, 500 µL of the working solution was added to each well, and the cells were incubated for 48 h at 37 °C in a 5% CO2 atmosphere. After incubation, cells were transferred to FACS tubes, medium was removed by centrifugation, and the cells were resuspended in FACS buffer for flow cytometry and in vitro binding studies, following the same protocol as previously described.

[3] = tested on: MM cell lines (U266, RPMI8226, MM1S, and MOLP8); test: ATRA treatment, flow cytometry of CD38 surface expression; assay type: cell-based, human; conditions: four MM cell lines, ATRA 48 h
Description: To evaluate CD38 surface expression, cells (1 × 10^6) were stained with PE‐labelled anti‐human CD38 monoclonal antibody (clone HB‐7, BioLegend Cat # 356604) in FACS buffer (0.5% FBS with 2 mM EDTA) for 30 min on ice. After washing and resuspending in FACS buffer, data were acquired on a BD Accuri C6 plus flow cytometer and analyzed using FlowJo software. Receptor density measurements were performed using Quantibrite Beads (BD Biosciences, cat #340495), which contain four levels of phycoerythrin (PE) per bead. Gates were drawn on low, medium low, medium high, and high PE binding beads, and the geometric mean from these populations was correlated with the lot‐specific PE molecule/bead on a logarithmic scale. This correlation was used to translate cell population geometric mean to receptor/cell for the respective cell type. To evaluate the pharmacodynamic effects of ATRA therapy on MM cells, U266, RPMI8226, MM1S, and MOLP8 cells were seeded at a concentration of 0.5 million in 500 µL per well in triplicates in a six‐well plate. A 200 × 10^−9 M working solution of all‐trans retinoic acid (ATRA, Sigma‐Aldrich #554720) was prepared by diluting in culture media. Next, 500 µL of the working solution was added to each well, and the cells were incubated for 48 h at 37 °C in a 5% CO2 atmosphere. […]

T1 sequence (P28907 whole entry): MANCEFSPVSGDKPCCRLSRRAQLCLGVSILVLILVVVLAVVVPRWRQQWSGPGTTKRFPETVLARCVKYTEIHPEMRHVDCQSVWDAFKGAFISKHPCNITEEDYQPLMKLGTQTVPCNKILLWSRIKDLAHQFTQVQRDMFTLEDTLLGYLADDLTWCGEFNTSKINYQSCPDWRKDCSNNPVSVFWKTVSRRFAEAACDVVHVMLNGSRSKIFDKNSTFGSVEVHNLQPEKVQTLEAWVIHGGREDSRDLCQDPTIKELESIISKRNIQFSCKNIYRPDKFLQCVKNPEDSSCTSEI

Compound | Kd ([1]; hCD38, read-out: dissociation constant (K D)) [nM] | koff ([1]; recombinant human CD38, mean ± SEM (n = 2), read-out: Koff (1/s) x10^-4) [s⁻¹] | change of [^68Ga]Ga‐AJ206 radioactivity uptake in tumors (PET) (PDX tumors) | change of [^68Ga]Ga‐AJ206 radioactivity uptake in treated cells [2] | change of CD38 expression [3]
CC[C@H](C)[C@@H]1NC(=O)[C@@H]2CCCN2C(=O)[C@H](Cc2ccccc2)NC(=O)[C@H](CC(=O)O)NC(=O)[C@H](C)NC(=O)[C@@H]2CSCc3cc(cc(c3)CSC[C@H](NC(=O)[C@H](C)NC(=O)CCOCCOCCOCCNC(=O)CN3CCN(CC(=O)O)CCN(CC(=O)O)CC3)C(=O)N[C@@H](C(C)C)C(=O)N3CCC[C@H]3C(=O)N2)CSC[C@@H](C(N)=O)NC(=O)[C@H](Cc2ccc(O)cc2)NC(=O)[C@H](Cc2c[nH]c3ccccc23)NC1=O [AJ206] | 19.1 ± 0.99 | 0.0006 ± 0.000121 | – | – | –
CC1=C(/C=C/C(C)=C/C=C/C(C)=C/C(=O)O)C(C)(C)CCC1 [ATRA, all‐trans retinoic acid] | – | – | significant increase | significant increase | increased CD38 expression
